Data as given in patent publication US7799778B1, “5-substituted 2-aminopyridine analogs for treating allergic and inflammatory diseases” (Alcon, Inc., priority 2005, dated 2010).

Biological target: Syk (h) (Homo sapiens, UniProt P43405)
Assay: Syk kinase activity (inhibition) assay, 33P-ATP filter assay
Type: biochemical
Settings: 10 μM test agent; Syk (h) 5-10 mU; 40 minutes at room temperature
Experimental: In a final reaction volume of 25 μl, Syk (h) (5-10 mU) is incubated with 50 mM Tris pH 7.5, […], 0.1 mM Na3VO4, 0.1% β-mercaptoethanol, 0.1 mg/mL poly (Glu, Tyr) 4:1, 10 μM test agent, 10 mM Mg Acetate and [γ-^33P-ATP] (specific activity approximately 500 cpm/pmol, concentration as required). The reaction is initiated by the addition of the MgATP mix. After incubation for 40 minutes at room temperature, the reaction is stopped by the addition of 5 μl of a 3% phosphoric acid solution. 10 μl of the reaction is then spotted onto a Filtermat A and washed three times for 5 minutes in 75 mM phosphoric acid and once in methanol prior to drying and scintillation counting. Percent inhibition was calculated using the following formula:
% Control=((sample-mean no enzyme)/(mean plus enzyme−mean no enzyme))×100.

| SMILES | inhibition at 10 µM [%] |
| --- | --- |
| CN(C)CCN1CCN(c2ccc(-c3cc(C(F)(F)F)cc(C(F)(F)F)c3)cn2)CC1 | 56 |
| CN(C)CCN(C)c1ccc(-c2ccc(Cl)cc2)cn1 | 51 |
| CN(C)CCN(C)c1ccc(-c2cccc(N(C)C)c2)cn1 | 45 |
| CN(C)CCN(C)c1ccc(-c2ccc(F)cc2F)cn1 | 45 |
| CCOc1cccc(-c2ccc(N(C)CCN(C)C)nc2)c1 | 42 |
| CCCC/C=C/c1ccc(N2CCN(CCN3CCCC3)CC2)nc1 | 38 |
| COc1cc(-c2ccc(N3CCN(CCN4CCCC4)CC3)nc2)cc(OC)c1OC | 37 |
| Fc1ccc(-c2ccc(N3CCN(CCN4CCCC4)CC3)nc2)c(F)c1 | 36 |
| COc1cc(-c2ccc(N3CCN(CCN(C)C)CC3)nc2)cc(OC)c1OC | 36 |
| CN(C)CCN1CCN(c2ccc(/C=C/c3ccccc3)cn2)CC1 | 36 |
| COc1cncc(-c2ccc(N3CCOCC3)nc2)c1 | 36 |
| Oc1cccc(-c2ccc(N3CCOCC3)nc2)c1 | 35 |
| Fc1ccc(-c2ccc(N3CCOCC3)nc2)c(F)c1 | 34 |
| c1cc(N2CCN(CCN3CCCC3)CC2)ncc1-c1ccc2c(c1)OCO2 | 32 |
| CCCC/C=C/c1ccc(N2CCN(CCN(C)C)CC2)nc1 | 31 |
| CN(C)CCN1CCN(c2ccc(-c3ccc(OC(F)(F)F)cc3)cn2)CC1 | 30 |
